Reference: patent US8173668B1 (Alcon Research, Ltd., priority 2007, dated 2012)

How the values were obtained:
[1] = test system: ocular normotensive mice; experiment: Acute IOP response in mouse eyes; format: in vivo; conditions: 0.1% topical, IOP at 6 and 24 hours; FIG. 7
Description: IOP is determined with an applanation pneumatonometer after light corneal anesthesia with 0.1% proparacaine. After baseline IOP measurements were taken, one eye of each of 8 mice was topically dosed with 0.1% FR-190997 in the formulation described in Example 10 or the vehicle of Example 10. The contralateral eye was dosed with vehicle as a control. Subsequent IOP measurements were taken at 6 and 24 hours.

[2] = test system: rabbits (New Zealand White and Dutch-Belted); experiment: IOP-lowering activity in rabbits; format: in vivo
From the text: Some obvious drawbacks and reasons for the lack of consistent observations noted above are probably related to species differences in the effects of BK on IOP changes and on the fact that BK is a labile peptide that can easily and rapidly be inactivated by kininases and other proteases when it comes into contact with body fluids (Hall, Pharmacol. Ther., 56, 131-190, 1992). Additionally, topical ocular administration of peptides such as BK are confounded by the potential lack of or little bioavailability through the cornea to reach the anterior segment of the eye. […] This is probably related to the attainment of a relevant concentration in the aqueous humor and ciliary body when the compound was administered topical ocularly.
IOP is determined with an applanation pneumatonometer after light corneal anesthesia with 0.1% proparacaine. After baseline IOP measurements are taken, one eye of each of 7-10 (or both eyes of 5) rabbits per compound dose is topically dosed with compound. Either the contralateral eye is dosed with vehicle or a separate group of rabbits is used for vehicle control. Subsequent IOP measurements are taken at 0.5, 1, 2, 3, and 4 hours. In cases where the compound has poor ocular bioavailability, the compound may need to be administered intracamerally or intravitreally in order to observe the IOP-lowering efficacy.

[3] = test system: h-NPE cells; experiment: Prostaglandin production in h-NPE cells; format: cell-based, human; conditions: 1-10 μM
Description: A functional assay to discover BK agonists may involve the measurement of prostaglandin E2 (PGE2) production (Wiernas et al. Brit. J. Pharmacol. 123: 1127-1137, 1998), for instance, in cells isolated from human or animal ocular or non-ocular tissues, or cells expressing recombinant (preferably human) BK receptors. Cells expressing BK receptors are seeded in 48-wells culture plates and allowed to reach confluence. After this time the cells are rinsed twice with 0.5 mL of phosphate buffered saline and incubated with the test agent made up in 0.5 mL Dulbeco's modified Eagle's medium (DMEM)/F-12 for 1 h at 37° C. […]
After this incubation, all tubes are placed in an ice-bath and 1 ml cold precipitating reagent supplied in the kit is added to the tubes, the content mixed and incubated for 25 min at 4° C. […] The supernatants of all tubes are decanted as specified in the kit instructions and the RIA samples analyzed on a gamma-counter. The levels of PGE2 generated by the test agent are then quantified in comparison with the PGE2-standard curve. Dose-response data for the test agent are constructed and the potency and intrinsic activity determined as described above for other assays. […]

`CNC(=O)c1ccc(/C=C/C(=O)NCC(=O)N(C)c2ccc(Cl)c(COc3cccc4c(OCc5ccccn5)cc(C)nc34)c2Cl)cc1` [FR-190997] was tested, and the “effect on IOP in ocular normotensive mice” value [1] was “lower IOP”, the “ability to lower IOP” value [2] was “unable to lower IOP” and the production of prostaglandins [3] was 1.26 fold above basal.
